Results on ten compounds are retold here after patent US20240158446A1, “CYCLIC COMPOUND HAVING SELECTIVE INHIBITORY ACTION ON KRAS OVER HRAS AND NRAS” (CHUGAI SEIYAKU KABUSHIKI KAISHA, priority 2021, published 2024).

The target of assay [1] is GDP-bound NRAS wild-type protein (Homo sapiens, UniProt P01111). The assay is described as follows: Binding to NRAS by surface plasmon resonance (SPR), Single Cycle Kinetics. The note with it: SPR, GDP-bound NRAS wild-type protein vs GDP-bound KRAS wild-type protein. (In SPR one partner is held on a chip, and binding of the other changes the refractive index at the surface.)

Assay [2] concerns the target GDP-bound KRAS wild-type protein (Homo sapiens, UniProt P01116). The assay is described as follows: Binding to KRAS by surface plasmon resonance (SPR), Single Cycle Kinetics. The note with it: SPR, Single Cycle Kinetics, GDP-bound KRAS wild-type protein; read-out: KRAS KD.
The target of assay [3] is GDP-bound HRAS wild-type protein (Homo sapiens, UniProt P01112). The experiment in a line: Binding to HRAS by surface plasmon resonance (SPR), Single Cycle Kinetics. The note with it: SPR, GDP-bound HRAS wild-type protein vs GDP-bound KRAS wild-type protein.
In assay [4] the test system is human lung cancer strain NCI-H441.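 Further: cell proliferation inhibition after four days measured by CellTiter-Glo.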

GDP-bound KRAS wild-type protein, sequence (P01116 whole entry): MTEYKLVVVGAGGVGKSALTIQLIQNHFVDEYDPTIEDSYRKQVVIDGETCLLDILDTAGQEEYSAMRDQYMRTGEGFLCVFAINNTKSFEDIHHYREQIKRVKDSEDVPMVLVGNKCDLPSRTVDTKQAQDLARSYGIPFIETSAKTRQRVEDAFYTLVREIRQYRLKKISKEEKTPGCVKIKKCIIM
GDP-bound HRAS wild-type protein, sequence (P01112 whole entry): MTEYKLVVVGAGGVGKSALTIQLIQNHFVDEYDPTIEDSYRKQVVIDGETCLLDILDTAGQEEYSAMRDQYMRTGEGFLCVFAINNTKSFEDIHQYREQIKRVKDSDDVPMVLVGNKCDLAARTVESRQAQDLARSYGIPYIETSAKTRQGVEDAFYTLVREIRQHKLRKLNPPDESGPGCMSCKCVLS
GDP-bound NRAS wild-type protein, sequence (P01111 whole entry): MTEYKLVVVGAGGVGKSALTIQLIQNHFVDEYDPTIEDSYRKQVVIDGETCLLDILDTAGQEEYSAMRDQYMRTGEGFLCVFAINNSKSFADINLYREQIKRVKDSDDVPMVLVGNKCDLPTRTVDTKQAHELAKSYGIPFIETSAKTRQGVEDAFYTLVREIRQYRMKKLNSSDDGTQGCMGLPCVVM

Take `CCCOC[C@H]1C(=O)N[C@@H]([C@@H](C)CC)C(=O)N2CCC[C@H]2C(=O)N(C)[C@H]2C/C=C\CCN(C2=O)[C@@H](Cc2ccc(C)cc2)C(=O)N(C)CC(=O)N[C@@H](CCc2cc(F)c(C(F)(F)F)c(F)c2)C(=O)N2C[C@H](C)C[C@H]2C(=O)NC2(CC(C)(C)C2)C(=O)N(C)[C@@H](C2CCCC2)C(=O)N(C)[C@H](C(=O)N(C)CC)CC(=O)N1C` [PP2430]: the “NRAS/KRAS (ratio of KD value for NRAS to KD value for KRAS)” value in assay [1] is reported as “AA (a compound having 20 or more is denoted as AA)”. In assay [2], the Kd was found to be 1.4 nM. Besides, in assay [3], the “HRAS/KRAS (ratio of KD value for HRAS to KD value for KRAS)” value was “A (a compound having 10 or more and less than 20 is denoted as A)”. Also, half-maximal inhibition in assay [4] (IC50) was put at 33.2 nM.
In the case of `CCCOC[C@H]1C(=O)N[C@@H]([C@@H](C)OCC)C(=O)N2CCC[C@H]2C(=O)N(C)[C@H]2C/C=C\CCN(C2=O)[C@@H](Cc2ccc(C)cc2)C(=O)N(C)CC(=O)N[C@@H](CCc2ccc(C(F)(F)F)c(OC)c2)C(=O)N2C[C@@H](C)C[C@H]2C(=O)NC2(CC(C)(C)C2)C(=O)N(C)[C@@H](C2CCCC2)C(=O)N(C)[C@H](C(=O)N(C)CC)CC(=O)N1C` [PP2431], the “NRAS/KRAS (ratio of KD value for NRAS to KD value for KRAS)” value in assay [1] was “A (a compound having 10 or more and less than 20 is denoted as A)”. For the same compound, the dissociation constant Kd in assay [2] stood at 2.3 nM. Also, in assay [3], the “HRAS/KRAS (ratio of KD value for HRAS to KD value for KRAS)” value was “A (a compound having 10 or more and less than 20 is denoted as A)”. In assay [4], this compound came in with an IC50 of 79.5 nM.
Consider `CCCOC[C@H]1C(=O)N[C@@H]([C@@H](C)OCC)C(=O)N2CCC[C@H]2C(=O)N(C)[C@H]2C/C=C\CCN(C2=O)[C@@H](Cc2ccc(C)cc2)C(=O)N(C)CC(=O)N[C@@H](CCc2cc(F)c(C(F)(F)F)c(F)c2)C(=O)N2C[C@H](OCC)C[C@H]2C(=O)NC2(CC(C)(C)C2)C(=O)N(C)[C@@H](C2CCCC2)C(=O)N(C)[C@H](C(=O)N(C)CC)CC(=O)N1C` [PP2432], for which the “NRAS/KRAS (ratio of KD value for NRAS to KD value for KRAS)” value in assay [1] is “A (a compound having 10 or more and less than 20 is denoted as A)”. In assay [2], the Kd came to 1.4 nM. Also, the “HRAS/KRAS (ratio of KD value for HRAS to KD value for KRAS)” value in assay [3] is “A (a compound having 10 or more and less than 20 is denoted as A)”. In assay [4], this compound registered a concentration for half-maximal inhibition (IC50) of 138 nM.
Take `CCOC[C@H]1C(=O)N[C@@H]([C@@H](C)OCC)C(=O)N2CCC[C@H]2C(=O)N(C)[C@H]2C/C=C\CCN(C2=O)[C@@H](Cc2ccc(C)cc2)C(=O)N(C)CC(=O)N[C@@H](CCc2ccc(C(F)(F)F)c(OC)c2)C(=O)N2C[C@@H](C)C[C@H]2C(=O)NC2(CC(C)(C)C2)C(=O)N(C)[C@@H](C2CCCC2)C(=O)N(C)[C@H](C(=O)N(C)CC)CC(=O)N1C` [PP2433]: the “NRAS/KRAS (ratio of KD value for NRAS to KD value for KRAS)” value in assay [1] is “AA (a compound having 20 or more is denoted as AA)”. Moreover, the Kd in assay [2] is 2.1 nM. For the same compound, the “HRAS/KRAS (ratio of KD value for HRAS to KD value for KRAS)” value in assay [3] is “A (a compound having 10 or more and less than 20 is denoted as A)”. In assay [4], this compound registered an IC50 of 120 nM.
In the case of `CCCO[C@H](C)[C@@H]1NC(=O)[C@H](COCC)N(C)C(=O)C[C@@H](C(=O)N(C)CC)N(C)C(=O)[C@H](C2CCCC2)N(C)C(=O)C2(CC(C)(C)C2)NC(=O)[C@@H]2C[C@@H](OCC)CN2C(=O)[C@H](CCc2cc(F)c(C(F)(F)F)c(F)c2)NC(=O)CN(C)C(=O)[C@H](Cc2ccc(C)cc2)N2CC/C=C\C[C@@H](C2=O)N(C)C(=O)[C@@H]2CCCN2C1=O` [PP2436], in assay [1], the “NRAS/KRAS (ratio of KD value for NRAS to KD value for KRAS)” value is “A (a compound having 10 or more and less than 20 is denoted as A)”. Also, in assay [2], the dissociation constant Kd was determined as 1.6 nM. The “HRAS/KRAS (ratio of KD value for HRAS to KD value for KRAS)” value in assay [3] was “A (a compound having 10 or more and less than 20 is denoted as A)”. This compound also came in with an IC50 in assay [4] of 126 nM.
Regarding `CC[C@H](C)[C@@H]1NC(=O)[C@H](COC)N(C)C(=O)C[C@@H](C(=O)N(C)CC)N(C)C(=O)[C@H](C2CCCC2)N(C)C(=O)C2(CC(C)(C)C2)NC(=O)[C@@H]2C[C@H](C)CN2C(=O)[C@H](CCc2cc(F)c(C(F)(F)F)c(F)c2)NC(=O)CN(C)C(=O)[C@H](Cc2ccc(C)cc2)N2CC/C=C\C[C@@H](C2=O)N(C)C(=O)CN(C)C1=O` [PP2437], the “NRAS/KRAS (ratio of KD value for NRAS to KD value for KRAS)” value in assay [1] was “A (a compound having 10 or more and less than 20 is denoted as A)”. The Kd in assay [2] was determined as 0.12 nM. In assay [3], the “HRAS/KRAS (ratio of KD value for HRAS to KD value for KRAS)” value is “A (a compound having 10 or more and less than 20 is denoted as A)”. In assay [4], this compound showed an IC50 of 18.8 nM.
For the compound `CCO[C@@H]1C[C@H]2C(=O)NC3(CC(C)(C)C3)C(=O)N(C)[C@@H](C(CC)CC)C(=O)N(C)[C@H](C(=O)N(C)C)CC(=O)N(C)[C@@H](COC)C(=O)N[C@@H]([C@@H](C)CC)C(=O)N(C)CC(=O)N(C)[C@H]3C/C=C\CCN(C3=O)[C@@H](CC3CCC(F)(F)CC3)C(=O)N(C)CC(=O)N[C@@H](CCc3ccc(C(F)(F)F)c(OC)c3)C(=O)N2C1` [PP2438], in assay [1], the “NRAS/KRAS (ratio of KD value for NRAS to KD value for KRAS)” value was “A (a compound having 10 or more and less than 20 is denoted as A)”. Besides, the Kd in assay [2] was 0.64 nM. In addition, the “HRAS/KRAS (ratio of KD value for HRAS to KD value for KRAS)” value in assay [3] is “A (a compound having 10 or more and less than 20 is denoted as A)”. Further, half-maximal inhibition in assay [4] (IC50) required 41.4 nM.
With `CCOC[C@H]1C(=O)N[C@@H]([C@@H](C)CC)C(=O)N(C)CC(=O)N(C)[C@H]2C/C=C\CCN(C2=O)[C@@H](Cc2ccc(C)cc2)C(=O)N(C)CC(=O)N[C@@H](CCc2cc(F)c(C(F)(F)F)c(F)c2)C(=O)N2C[C@@H](C)C[C@H]2C(=O)NC2(CC(C)(C)C2)C(=O)N(C)[C@@H](C2CCCC2)C(=O)N(C)[C@H](C(=O)N(C)C)CC(=O)N1C` [PP2439], the “NRAS/KRAS (ratio of KD value for NRAS to KD value for KRAS)” value in assay [1] was “A (a compound having 10 or more and less than 20 is denoted as A)”. For the same compound, the Kd in assay [2] amounted to 0.12 nM. For the same compound, the “HRAS/KRAS (ratio of KD value for HRAS to KD value for KRAS)” value in assay [3] was “A (a compound having 10 or more and less than 20 is denoted as A)”. This compound had an IC50 in assay [4] of 6.6 nM.
`CCO[C@@H]1C[C@H]2C(=O)NC3(CC(C)(C)C3)C(=O)N(C)[C@@H](C(CC)CC)C(=O)N(C)[C@H](C(=O)N(C)C)CC(=O)N(C)[C@@H](COC)C(=O)N[C@@H]([C@@H](C)CC)C(=O)N(C)CC(=O)N(C)[C@H]3C/C=C\CCN(C3=O)[C@@H](CC3CCC(F)(F)CC3)C(=O)N(C)CC(=O)N[C@@H](CCc3cc(F)c(C(F)(F)F)c(F)c3)C(=O)N2C1` [PP2440]: the “NRAS/KRAS (ratio of KD value for NRAS to KD value for KRAS)” value in assay [1] is “A (a compound having 10 or more and less than 20 is denoted as A)”. In addition, the Kd in assay [2] was 0.44 nM. In addition, in assay [3], the “HRAS/KRAS (ratio of KD value for HRAS to KD value for KRAS)” value was “A (a compound having 10 or more and less than 20 is denoted as A)”. Half-maximal inhibition in assay [4] (IC50) required 20.1 nM.
For the compound `CC[C@H](C)[C@@H]1NC(=O)[C@H](COC)N(C)C(=O)C[C@@H](C(=O)N(CC)CC)N(C)C(=O)[C@H](C2CCCC2)N(C)C(=O)C2(CC(C)(C)C2)NC(=O)[C@@H]2C[C@H](C)CN2C(=O)[C@H](CCc2ccc(C(F)(F)F)c(OC)c2)NC(=O)CN(C)C(=O)[C@H](Cc2ccc(C)cc2)N2CC/C=C\C[C@@H](C2=O)N(C)C(=O)CN(C)C1=O` [PP2441], the “NRAS/KRAS (ratio of KD value for NRAS to KD value for KRAS)” value in assay [1] is listed as “AA (a compound having 20 or more is denoted as AA)”. The dissociation constant (Kd) in assay [2] turned out to be 0.29 nM. The “HRAS/KRAS (ratio of KD value for HRAS to KD value for KRAS)” value in assay [3] was “A (a compound having 10 or more and less than 20 is denoted as A)”. In assay [4], the half-maximal inhibitory concentration (IC50) worked out at 22.9 nM.

By Kd is commonly meant the concentration at which binding is half-saturated. Broadly, the IC50 is the point on the concentration scale where inhibition reaches its midpoint. Low readings indicate greater potency, high ones weaker potency.
